# Ends that are not written are not given here. * marks the point of attachment. Biotin = O=C1N[C@H]2[C@H](CS[C@H]2CCCCC(=O)*)N1
# How the values were obtained:
# [1] = ELISA with seronegative / negative control sera (specificity); assay type: binding, human
# How it was run: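 Specificity readout is OD at 450 nm (HRP goat anti-human Ig, TMB/H2O2, sulfuric acid stop), with ≥0.250 counted positive. Seronegative donor sera (typically 1:100, 1 h, 37° C) were applied to casein-blocked wells coated with peptide directly or via streptavidin capture of biotinylated peptide.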
# [2] = tested on: antibodies in sera from HCV-seropositive donors; test: ELISA with HCV antibody-positive sera (biotinylated peptides on streptavidin- or avidin-coated plates, unbiotinylated peptides coated directly); assay type: binding, human; conditions: for PEPTIDE ELISA (O.D.): Table 12, biotinylated 20-mers
# How it was run: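 Peptides coated either directly at 2–5 or 3 μg/ml in carbonate buffer pH 9.6, or biotinylated at 1 μg/ml on streptavidin-coated wells (3 μg/ml). Plates casein-blocked, then human sera (1:100 or 1:20) incubated 1 h at 37° C. Bound antibody detected with HRP anti-human Ig/TMB, read as OD450.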
# [3] = Table 8, serum 1782 (blood donor), Avidin
# [4] = Table 8, serum 1784 (blood donor), Avidin
# [5] = Table 8, serum 1785 (blood donor), Avidin
# [6] = Table 8, serum 1794 (blood donor), Avidin
# [7] = Table 8, serum 8243 (HCV), Avidin
# [8] = Table 8, serum 8247 (HCV), Avidin
# [9] = Table 8, serum 8248 (HCV), Avidin
# [10] = Table 8, serum 8269 (HCV), Avidin
# [11] = Table 8, serum 8273 (HCV), Avidin
# [12] = Table 8, serum 8278 (HCV), Avidin
# [13] = Table 8, serum 8285 (HCV), Avidin
# [14] = Table 8, serum 8290 (HCV), Avidin
# [15] = Table 8, serum 8291 (HCV), Avidin
substance,measurement,setting,value
Bio-Gly-Gly-Gly-Ile-Trp-Gly-Cys-Ser-Gly-Lys-Leu-Ile-Cys-NH2 (Biotin-GGGIWGCSGKLIC-NH2; cysteine pairing not given here) [TM-HIV-1 Bio],optical density (450 nm),"[1]; Table 1, serum 180, seronegative donor",0.005
same,optical density (450 nm),"[1]; Table 1, serum 194, seronegative donor",0.000
same,optical density (450 nm),"[1]; Table 1, serum 195, seronegative donor",0.000
same,optical density (450 nm),"[1]; Table 1, serum 204, seronegative donor",0.001
same,optical density (450 nm),"[1]; Table 6, serum 1733, seronegative blood donor",0.000
same,optical density (450 nm),"[1]; Table 6, serum 1747, seronegative blood donor",0.000
same,optical density (450 nm),"[1]; Table 6, serum 1784, seronegative blood donor",0.000
same,optical density (450 nm),[1]; [3],0.052
same,optical density (450 nm),[1]; [4],0.044
same,optical density (450 nm),[1]; [5],0.046
same,optical density (450 nm),[1]; [6],0.124
same,optical density (450 nm),[2]; [7],0.108
same,optical density (450 nm),[2]; [8],0.042
same,optical density (450 nm),[2]; [9],0.043
same,optical density (450 nm),[2]; [10],0.053
same,optical density (450 nm),[2]; [11],0.053
same,optical density (450 nm),[2]; [12],0.046
same,optical density (450 nm),[2]; [13],0.134
same,optical density (450 nm),[2]; [14],0.045
same,optical density (450 nm),[2]; [15],0.048
Bio-Gly-Gly-Tyr-Asn-Lys-Arg-Lys-Arg-Ile-His-Ile-Gly-Pro-Gly-Arg-Ala-Phe-Tyr-Thr-Thr-Lys-Asn-Ile-Ile-Gly-NH2 (Biotin-GGYNKRKRIHIGPGRAFYTTKNIIG-NH2) [V3-mn Bio],optical density (450 nm),"[1]; Table 2, negative control",0.069
same,optical density (450 nm),"[1]; Table 3, Control, peptide bound to avidin",0.063
same,optical density (450 nm),"[1]; Table 3, Control, peptide bound to streptavidin",0.050
same,optical density (450 nm),[1]; [3],0.059
same,optical density (450 nm),[1]; [4],0.046
same,optical density (450 nm),[1]; [5],0.048
same,optical density (450 nm),[1]; [6],0.091
same,optical density (450 nm),[2]; [7],0.114
same,optical density (450 nm),[2]; [8],0.052
same,optical density (450 nm),[2]; [9],0.048
same,optical density (450 nm),[2]; [10],0.056
same,optical density (450 nm),[2]; [11],0.056
same,optical density (450 nm),[2]; [12],0.053
same,optical density (450 nm),[2]; [13],0.143
same,optical density (450 nm),[2]; [14],0.050
same,optical density (450 nm),[2]; [15],0.053
ETWKKPDYEPPVVHGCPLPP,optical density (450 nm),"[1]; Table 4G, negative serum",0.001
same,optical density (450 nm),"[1]; Table 5, sample 1747 (negative), peptide concentration 0.01 micrograms per milliliter, listed as HCV peptide XVIII",0.042
same,optical density (450 nm),"[1]; Table 5, sample 1747 (negative), peptide concentration 0.03 micrograms per milliliter, listed as HCV peptide XVIII",0.058
same,optical density (450 nm),"[1]; Table 5, sample 1747 (negative), peptide concentration 0.1 micrograms per milliliter, listed as HCV peptide XVIII",0.044
same,optical density (450 nm),"[1]; Table 5, sample 1747 (negative), peptide concentration 0.3 micrograms per milliliter, listed as HCV peptide XVIII",0.061
same,optical density (450 nm),"[1]; Table 5, sample 1747 (negative), peptide concentration 1.0 micrograms per milliliter, listed as HCV peptide XVIII",0.042
same,optical density (450 nm),"[1]; Table 5, sample 1747 (negative), peptide concentration 3.0 micrograms per milliliter, listed as HCV peptide XVIII",0.047
same,optical density (450 nm),"[1]; Table 5, sample 1781 (negative), peptide concentration 0.01 micrograms per milliliter, listed as HCV peptide XVIII",0.045
same,optical density (450 nm),"[1]; Table 5, sample 1781 (negative), peptide concentration 0.03 micrograms per milliliter",0.051
same,optical density (450 nm),"[1]; Table 5, sample 1781 (negative), peptide concentration 0.1 micrograms per milliliter, listed as HCV peptide XVIII",0.048
same,optical density (450 nm),"[1]; Table 5, sample 1781 (negative), peptide concentration 0.3 micrograms per milliliter, listed as HCV peptide XVIII",0.048
same,optical density (450 nm),"[1]; Table 5, sample 1781 (negative), peptide concentration 1.0 micrograms per milliliter, listed as HCV peptide XVIII",0.048
same,optical density (450 nm),"[1]; Table 5, sample 1781 (negative), peptide concentration 3.0 micrograms per milliliter, listed as HCV peptide XVIII",0.053
same,optical density (450 nm),[1]; [3],0.053
same,optical density (450 nm),[1]; [4],0.047
same,optical density (450 nm),[1]; [5],0.047
same,optical density (450 nm),[1]; [6],0.104
same,optical density (450 nm),"[2]; Table 4G, serum 1, 20-fold dilution",2.691
same,optical density (450 nm),"[2]; Table 4G, serum 33, 20-fold dilution",1.813
same,optical density (450 nm),"[2]; Table 4G, serum 39, 20-fold dilution",0.213
same,optical density (450 nm),"[2]; Table 4G, serum 47, 20-fold dilution",2.611
same,optical density (450 nm),"[2]; Table 4G, serum 79, 20-fold dilution",2.105
same,optical density (450 nm),"[2]; Table 4G, serum 83, 20-fold dilution",1.232
same,optical density (450 nm),"[2]; Table 4G, serum 88, 20-fold dilution",1.858
same,optical density (450 nm),"[2]; Table 4G, serum 89, 20-fold dilution",2.309
same,optical density (450 nm),"[2]; Table 4G, serum 91, 20-fold dilution",1.132
same,optical density (450 nm),"[2]; Table 4G, serum 99, 20-fold dilution",1.526
same,optical density (450 nm),"[2]; Table 4G, serum 104, 20-fold dilution",1.998
same,optical density (450 nm),"[2]; Table 4G, serum 105, 20-fold dilution",2.053
same,optical density (450 nm),"[2]; Table 4G, serum 110, 20-fold dilution",2.065
same,optical density (450 nm),"[2]; Table 4G, serum 111, 20-fold dilution",1.542
same,optical density (450 nm),"[2]; Table 4G, serum 112, 20-fold dilution",1.408
same,optical density (450 nm),"[2]; Table 4G, serum 116, 20-fold dilution",1.978
same,optical density (450 nm),"[2]; Table 4G, serum 120, 20-fold dilution",2.031
same,optical density (450 nm),"[2]; Table 5, sample 8242 (positive), peptide concentration 0.01 micrograms per milliliter, listed as HCV peptide XVIII",1.185
same,optical density (450 nm),"[2]; Table 5, sample 8242 (positive), peptide concentration 0.03 micrograms per milliliter, listed as HCV peptide XVIII",1.188
same,optical density (450 nm),"[2]; Table 5, sample 8242 (positive), peptide concentration 0.1 micrograms per milliliter, listed as HCV peptide XVIII",0.946
same,optical density (450 nm),"[2]; Table 5, sample 8242 (positive), peptide concentration 0.3 micrograms per milliliter, listed as HCV peptide XVIII",0.873
same,optical density (450 nm),"[2]; Table 5, sample 8242 (positive), peptide concentration 1.0 micrograms per milliliter, listed as HCV peptide XVIII",0.839
same,optical density (450 nm),"[2]; Table 5, sample 8242 (positive), peptide concentration 3.0 micrograms per milliliter, listed as HCV peptide XVIII",0.749
same,optical density (450 nm),"[2]; Table 5, sample 8243 (positive), peptide concentration 0.01 micrograms per milliliter, listed as HCV peptide XVIII",0.462
same,optical density (450 nm),"[2]; Table 5, sample 8243 (positive), peptide concentration 0.03 micrograms per milliliter, listed as HCV peptide XVIII",0.611
same,optical density (450 nm),"[2]; Table 5, sample 8243 (positive), peptide concentration 0.1 micrograms per milliliter, listed as HCV peptide XVIII",0.661
same,optical density (450 nm),"[2]; Table 5, sample 8243 (positive), peptide concentration 0.3 micrograms per milliliter, listed as HCV peptide XVIII",0.629
same,optical density (450 nm),"[2]; Table 5, sample 8243 (positive), peptide concentration 1.0 micrograms per milliliter, listed as HCV peptide XVIII",0.627
same,optical density (450 nm),"[2]; Table 5, sample 8243 (positive), peptide concentration 3.0 micrograms per milliliter, listed as HCV peptide XVIII",0.671
same,optical density (450 nm),"[2]; Table 5, sample 8318 (positive), peptide concentration 0.01 micrograms per milliliter, listed as HCV peptide XVIII",1.711
same,optical density (450 nm),"[2]; Table 5, sample 8318 (positive), peptide concentration 0.03 micrograms per milliliter, listed as HCV peptide XVIII",2.308
same,optical density (450 nm),"[2]; Table 5, sample 8318 (positive), peptide concentration 0.1 micrograms per milliliter, listed as HCV peptide XVIII",2.409
same,optical density (450 nm),"[2]; Table 5, sample 8318 (positive), peptide concentration 0.3 micrograms per milliliter, listed as HCV peptide XVIII",2.392
same,optical density (450 nm),"[2]; Table 5, sample 8318 (positive), peptide concentration 1.0 micrograms per milliliter, listed as HCV peptide XVIII",2.396
same,optical density (450 nm),"[2]; Table 5, sample 8318 (positive), peptide concentration 3.0 micrograms per milliliter, listed as HCV peptide XVIII",2.391
same,optical density (450 nm),"[2]; Table 5, sample 8326 (positive), peptide concentration 0.01 micrograms per milliliter, listed as HCV peptide XVIII",1.848
same,optical density (450 nm),"[2]; Table 5, sample 8326 (positive), peptide concentration 0.03 micrograms per milliliter, listed as HCV peptide XVIII",2.219
same,optical density (450 nm),"[2]; Table 5, sample 8326 (positive), peptide concentration 0.1 micrograms per milliliter, listed as HCV peptide XVIII",2.331
same,optical density (450 nm),"[2]; Table 5, sample 8326 (positive), peptide concentration 0.3 micrograms per milliliter, listed as HCV peptide XVIII",2.331
same,optical density (450 nm),"[2]; Table 5, sample 8326 (positive), peptide concentration 1.0 micrograms per milliliter, listed as HCV peptide XVIII",2.331
same,optical density (450 nm),"[2]; Table 5, sample 8326 (positive), peptide concentration 3.0 micrograms per milliliter, listed as HCV peptide XVIII",2.315
same,optical density (450 nm),[2]; [7],0.118
same,optical density (450 nm),[2]; [8],0.046
same,optical density (450 nm),[2]; [9],0.905
same,optical density (450 nm),[2]; [10],1.513
same,optical density (450 nm),[2]; [11],0.052
same,optical density (450 nm),[2]; [12],0.052
same,optical density (450 nm),[2]; [13],0.146
same,optical density (450 nm),[2]; [14],2.323
same,optical density (450 nm),[2]; [15],0.049
same,PEPTIDE ELISA (O.D.),[2]; serum 0843,0.127
same,PEPTIDE ELISA (O.D.),[2]; serum 8240,1.511
same,PEPTIDE ELISA (O.D.),[2]; serum 8241,0.273
same,PEPTIDE ELISA (O.D.),[2]; serum 8242,2.453
same,PEPTIDE ELISA (O.D.),[2]; serum 8332,2.290
same,PEPTIDE ELISA (O.D.),[2]; serum 8339,2.757
same,PEPTIDE ELISA (O.D.),[2]; serum 8350,0.182
same,PEPTIDE ELISA (O.D.),[2]; serum 8377,1.378
same,PEPTIDE ELISA (O.D.),[2]; serum 8378,2.337
same,PEPTIDE ELISA (O.D.),[2]; serum 8388,2.358

# Source: US6667387B1, “HCV core peptides” (priority 1992, dated 2003)
